US12691086B2, “Methods of treating systemic sclerosis and idiopathic pulmonary fibrosis” (HORIZON THERAPEUTICS IRELAND DAC, priority 2022, dated 2026)
Like-named read-outs stand apart in the source and are kept apart here.

What was measured:
[1] = target: lysophosphatidic acid receptor 1 (LPAR1) (Homo sapiens, UniProt Q92633); test: LPAR1 antagonism
[2] = tested on: patients with early dcSSc; test: 8-week double-blind, placebo-controlled study with 16-week open-label extension in dcSSc; assay type: in vivo, human
From the text: The primary end point was safety during the double-blind phase of the trial. Exploratory end points included the identification of an LPA-induced gene signature in patients' skin.
Seventeen of 32 patients were randomly assigned to receive placebo and 15 to receive Compound I. Thirty patients participated in the open-label extension study. […] At week 8, the reduction in MRSS was numerically greater in the Compound I group than in the placebo group (mean±SD change −3.57±4.18 versus −2.76±4.85; treatment effect −1.2 [95% confidence interval −4.37, 2.02]).

[3] = Food effect on PK at 450 mg single dose in healthy adult subjects; assay type: in vivo, human; conditions: for AUC(0-inf) / AUC(0-t) / Cmax: human, plasma, oral; for AUC(0-inf): read-out: AUC0-inf, Geometric LSM; for AUC(0-t): read-out: AUC0-last, Geometric LSM; for Cmax: read-out: Cmax, Geometric LSM
Protocol: The PK of Compound I and food effect were evaluated in an open-label study in healthy volunteers to inform the dose and dosing condition of the tablet formulations used in the clinical studies. Dose proportionality and food effect were evaluated using a 2-way, 2-period crossover design in two cohorts:150 mg and 300 mg single dose under fasting condition in Cohort 1 and 450 mg single dose under fasting and high-fat, high calorie meal condition in Cohort 2. Multiple-dose PK was evaluated using a 2-period, fixed sequence crossover design. Subjects received Compound I twice a day (BID) of 300 mg (Cohort 3) or 450 mg (Cohort 4) administered with low-fat meals in Period 1 and with high-fat meals in Period 2.
PK sample collections: For cohort 1 and 2, blood samples were collected at predose, 0.5, 1, 2, 3, 4, 6, 8, 12, 24, 36, 48, 72, 96 and 120 h post dose. For cohort 3 and 4, blood samples were collected at predose, 0.5, 1, 2, 4, 5, 12 hrs after the first dose on Day 1. After the last dose on Day 5, PK samples were taken at predose, 0.5, 1, 2, 4, 6, 12, 24, 36, 60, 84, 108 hr in Period 1 and predose, 0.5, 1, 2, 4, 6, 12 hours post last dose in Period 2.
Plasma concentrations of Compound I were determined using a validated high performance liquid chromatography-tandem mass spectrometry (HPLC MS/MS) method. The analytical range of Compound I were 250-50,000 ng/mL (high range) and […] (low range). Dose-proportionality of pharmacokinetic parameters were examined by analysis of variance (ANOVA) where the AUC0-last, AUC0-inf, and Cmax parameters were dose normalized. 90% confidence intervals (CIs) were derived by exponentiation of the CIs obtained for the difference between the treatment LSMs (Least square means). Dose proportionality was established if the 90% CI for the ratio of the geometric means for the dose-normalized parameters lay within the limits of (0.7, 1.43).
Food effect was evaluated using ANOVA on the ln-transformed PK parameters. The ANOVA model included sequence, treatment, and period as fixed effects and subject nested within sequence as a random effect. Geometric least square means, geometric mean ratio (High fat vs. fasted) and 90% confidence interval of PK parameters (AUC and Cmax) were calculated from the ANOVA model.

[4] = tested on: leukocytes and total inflammatory cells in broncho-alveolar lavage; test: Broncho-alveolar lavage of presensitized mice treated with ovalbumin; assay type: in vivo
[5] = tested on: bleomycin-induced skin fibrosis; test: Bleomycin-induced skin fibrosis model, therapeutic protocol; assay type: in vivo, mouse; conditions: 50 mg/kg/day
From the text: Two models of skin fibrosis were used to evaluate the effect of Compound I in comparison with imatinib mesylate, used as a reference.

[6] = tested on: cardiac hypertrophy, fibrosis and heart failure; test: Models of hypertension or diabetes-related cardiac hypertrophy, fibrosis and heart failure; conditions: in vivo
From the text: (§1) All these pathological events can be observed in SSc patients at different levels and further support the use of Compound I in these patients.

renal failure = test: Models of hypertension-induced or nephrotoxicity-induced renal failure; conditions: in vivo
From the text: as §1

[7] = target: T1, organic anion transporter 1 (OAT1) (Homo sapiens, UniProt Q4U2R8); test: In vitro inhibition of organic anion transporter 1; assay type: in vitro ADME
T1 sequence (Q4U2R8 1-563): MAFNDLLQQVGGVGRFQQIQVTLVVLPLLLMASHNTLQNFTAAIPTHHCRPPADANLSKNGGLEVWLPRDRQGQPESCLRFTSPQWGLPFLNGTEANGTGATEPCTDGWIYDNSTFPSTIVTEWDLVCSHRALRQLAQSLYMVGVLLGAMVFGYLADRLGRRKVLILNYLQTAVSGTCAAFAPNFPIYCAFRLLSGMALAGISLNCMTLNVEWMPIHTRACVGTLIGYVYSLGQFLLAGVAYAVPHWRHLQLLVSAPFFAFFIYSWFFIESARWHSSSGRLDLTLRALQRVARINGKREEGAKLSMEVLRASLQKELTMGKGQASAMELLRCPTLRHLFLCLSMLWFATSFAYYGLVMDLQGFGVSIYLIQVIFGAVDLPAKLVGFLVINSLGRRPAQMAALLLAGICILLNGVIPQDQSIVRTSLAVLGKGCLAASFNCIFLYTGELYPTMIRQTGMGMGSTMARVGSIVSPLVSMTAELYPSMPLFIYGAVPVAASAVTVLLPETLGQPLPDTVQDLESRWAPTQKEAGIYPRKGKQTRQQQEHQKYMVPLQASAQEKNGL

[8] = 24-weeks of continuous treatment
[9] = Subjects switched from placebo to Compound I, 16-week open label extension
[10] = Fed (high-fat, high-calorie meal)
[11] = therapeutic protocol, mouse skin

Chain of lysophosphatidic acid receptor 1 (LPAR1) (Q92633 whole entry): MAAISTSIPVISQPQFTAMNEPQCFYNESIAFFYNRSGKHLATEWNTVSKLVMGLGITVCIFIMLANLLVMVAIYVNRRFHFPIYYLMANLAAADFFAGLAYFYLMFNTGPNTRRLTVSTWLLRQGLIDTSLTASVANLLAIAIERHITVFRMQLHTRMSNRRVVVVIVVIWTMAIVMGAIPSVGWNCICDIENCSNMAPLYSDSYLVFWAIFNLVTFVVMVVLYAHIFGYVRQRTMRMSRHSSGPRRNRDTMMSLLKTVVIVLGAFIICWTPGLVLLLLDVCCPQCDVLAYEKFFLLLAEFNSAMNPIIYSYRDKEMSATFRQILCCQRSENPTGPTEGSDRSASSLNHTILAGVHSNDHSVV

Question: With `COc1ccc(C(=O)NC2(C(=O)O)Cc3ccccc3C2)cc1OCCc1cccc(C)c1` [Compound I, 2-(4-methoxy-3-(3-methylphenethoxy)benzamido)-2,3-dihydro-1H-indene-2-carboxylic acid] as the compound, how does the LPAR1 antagonist activity [1] read?
Answer: The LPAR1 antagonist activity was “potent and selective antagonist”.

Question: And the “Median Decrease in mRSS” value [2, 8]?
Answer: Its value is −7.5.

Question: And the “Responder Rate” value [2, 8]?
Answer: Its value is 78.6%.

Question: What about the “Median Decrease in mRSS” value [2, 9] of the same compound?
Answer: The value was −7.0.

Question: What about the “Responder Rate” value [2, 9] of the same compound?
Answer: The value was 69.2%.

Question: And the “most frequent adverse events” value ([2]; blinded phase)?
Answer: Its value is “headache, diarrhea, nausea, and falling”.

Question: What about the “MRSS during the study” value ([2]; in vivo) of the same compound?
Answer: The value was “improved during the study although the difference was not significant”.

Question: And the “disease biomarkers (COMP and TSP1)” value ([2]; initial Compound I group, treatment up to 24 weeks)?
Answer: The value was “numerical improvement versus baseline”.

Question: And the “LPA-related genes, biomarker analysis of skin biopsies” value ([2]; open label extension)?
Answer: Its value is “reductions in LPA-related genes”.

Question: What about the safety profile ([2]; open-label extension) of the same compound?
Answer: The safety profile was “acceptable”.

Question: What about the tolerability ([2]; patients with dcSSc) of the same compound?
Answer: Its tolerability is “well tolerated”.

Question: What about the “reduction of LPA-related genes in skin samples versus placebo group” value ([2]; week 8) of the same compound?
Answer: Its value is “greater reduction”.

Question: And the “treatment effect on MRSS versus placebo” value ([2]; week 8)?
Answer: Its value is −1.2.

Question: And the “change in MRSS, mean±SD” value ([2]; week 8, double-blind phase)?
Answer: The value was −3.57±4.18.

Question: What about the “HAQ-DI (functional disability)” value ([2]; week 24) of the same compound?
Answer: The value was “clinically significant improvement”.

Question: What about the “Cmax, GMR fed vs fasted” value [3] of the same compound?
Answer: The value was 190.85%.

Question: What about the AUC(0-inf) ([3]; Fasted) of the same compound?
Answer: The AUC(0-inf) was 117 µg·h/mL.

Question: And the AUC(0-t) ([3]; Fasted)?
Answer: The AUC(0-t) was 116 µg·h/mL.

Question: And the Cmax ([3]; Fasted)?
Answer: Its Cmax is 14000 ng/mL.

Question: And the AUC(0-inf) [3, 10]?
Answer: Its AUC(0-inf) is 248 µg·h/mL.

Question: What about the AUC(0-t) [3, 10] of the same compound?
Answer: The AUC(0-t) was 246 µg·h/mL.

Question: What about the Cmax [3, 10] of the same compound?
Answer: The Cmax was 26700 ng/mL.

Question: What about the “inflammation in model of lung injury” value ([4]; predominant Th2-type response) of the same compound?
Answer: The value was “reduces inflammation”.

Question: What about the “accumulation of leukocytes and total inflammatory cells in broncho-alveolar lavage” value ([4]; presensitized mice treated with ovalbumin) of the same compound?
Answer: Its value is “significant inhibitory effect”.

Question: What about the “effect on these markers versus imatinib reference” value [5] of the same compound?
Answer: Its value is “comparable with the effects of imatinib”.

Question: What about the collagen content [5, 11] of the same compound?
Answer: Its collagen content is “able to reverse”.

Question: And the dermal thickness [5, 11]?
Answer: Its dermal thickness is “able to reverse”.

Question: What about the myofibroblast differentiation [5, 11] of the same compound?
Answer: Its myofibroblast differentiation is “able to reverse”.

Question: What about the arterial stiffness [6] of the same compound?
Answer: The arterial stiffness was “positive effect”.

Question: And the blood pressure [6]?
Answer: The blood pressure was “mostly unchanged”.

Question: And the “cardiac function and structure” value [6]?
Answer: The value was “beneficial effect”.

Question: And the “cardiac systolic and diastolic function” value [6]?
Answer: The value was “improves”.

Question: And the kidney function (renal failure)?
Answer: The kidney function was “improved kidney function”.

Question: What about the “inhibition of OAT1” value [7] of the same compound?
Answer: Its value is “inhibitor”.
